In the assay the test system is Human Embryo Kidney (HEK) 293 cells. Description: Hypothermia/rewarming injury of HEK cells, trypan blue viability count. The class given is cell-based. The settings on record: for viability at 0.01 µM / viability at 0.1 µM / viability at 1 µM / viability at 10 µM / viability at 100 µM / viability at 1000 µM: Homo sapiens, HEK293, 24 h, read-out: % cells that survived; for viability at 0.01 µM / viability at 0.1 µM / viability at 1 µM / viability at 10 µM / viability at 100 µM / viability at 1000 µM / % cells that survived: 24 h at 4° C., 24 h rewarming; for % cells that survived, Mean: mean over the tested concentrations.

Description: Human Embryo Kidney (HEK) 293 cells were cultured in DMEM cell culture medium (Life Technologies, 41965-052) supplemented with fetal calf serum, penicillin and streptomycin. Cells were seeded at a density of 0.8-1.2E6 mL-1 in 25 cm2 polystyrene flasks, placed in a 37° C.
The compounds were dissolved in dimethyl sulfoxide (DMSO) to several concentrations. Before commencing experiments, this stock solution was dissolved in pre-warmed DMEM and further diluted to obtain a concentration range from 10 nM-1 mM. Cell culture medium was then replaced by these dilutions and cells were incubated in the presence of the compound for 1 hour. After incubation, lids were closed tightly and flasks were placed in a 4° C. room and cooled for 24 hours. After this cooling period, cells were placed back in the 37° C. incubator with lids closed and were allowed to rewarm for another 24 hours.
After this rewarming period, microscopic images were taken to assess cell morphology (Nikon D5100, Nikon Diaphot-TMD). Cell culture medium was collected and centrifuged (4 minutes, 2000 rpm). The supernatant was collected and pH was immediately measured to prevent equilibration of the pH by the carbonate buffer in the medium, while the pelleted cells were resuspended in 5 mL of PBS. Cells remaining in the flask were washed twice with phosphate buffered saline (PBS) while the washing product was discarded. Subsequently, the cells were trypsinized by addition of 0.5 mL of trypsine and pooled with the resuspended pellet. This cell suspension was then stained at a final concentration of 0.2% trypan blue (Sigma, T8154), followed by manual assessment of viability and cell number on a Bürker-Türk hemocytometer. To conclude the assay, cell culture medium glucose levels were measured (Roche Accutrend Plus) as an indication of metabolic activity. All of these steps were performed with care to prevent mechanical stress to influence or alter the viability of the cells after cooling.
The amount represents the % cells that survived. […] In the control, the same procedure was applied to two badges of HEK cells.

In the case of `COC(=O)C1(C)CCc2c(c(C)c(C(C)C)c(O)c2C(C)C)O1` (stereo not shown) [SUL - 146, methyl 6-hydroxy-5,7-diisopropyl-2,8-dimethylchroman-2-carboxylate], the “% cells that survived, Mean” value was 46%. Further, for the setting “10 nM”, the viability at 0.01 µM came out at 0.96%. In addition, the viability at 0.1 µM (100 nM) is 17%. The viability at 1 µM (1 μM) stood at 90.6%. In addition, for the setting “10 μM”, the viability at 10 µM was determined as 80.7%. In addition, where the note is “100 μM”, the viability at 100 µM was 85.5%. Besides, the viability at 1000 µM (1 mM) amounted to 0%.

Take `Cc1c(C)c2c(c(C)c1O)CCC(C)(C(=O)N1CCOCC1)O2` (stereo not shown) [SUL - 95, (6-hydroxy-2,5,7,8-tetramethylchroman-2-yl)(morpholino)methanone]: the “% cells that survived, Mean” value worked out at 72%. Further, the viability at 0.1 µM (100 nM) was determined as 2.76%. The viability at 1 µM (1 μM) worked out at 86.8%. The viability at 10 µM (10 μM) worked out at 90.4%. In addition, the viability at 100 µM (100 μM) is 92.1%. Also, the viability at 1000 µM (1 mM) is 85.9%.

Consider `Cc1c(C)c2c(c(C)c1O)CCC(C)(C(=O)NCCC#N)O2` (stereo not shown) [SUL - 123, N-(2-cyanoethyl)-6-hydroxy-2,5,7,8-tetramethylchroman-2-carboxamide], for which the “% cells that survived, Mean” value amounted to 70%. Moreover, the viability at 0.01 µM (10 nM) came to 68.4%. For the same molecule, the viability at 0.1 µM (100 nM) amounted to 90.5%. In addition, the viability at 1 µM (1 μM) was 83.2%. The viability at 10 µM (10 μM) was found to be 88.4%. Besides, the viability at 100 µM (100 μM) turned out to be 88.2%. Also, the viability at 1000 µM (1 mM) was determined as 0.75%.

Regarding `COC(=O)c1ccc(NC(=O)C2(C)CCc3c(C)c(O)c(C)c(C)c3O2)cc1` (stereo not shown) [SUL - 107, methyl 4-(6-hydroxy-2,5,7,8-tetramethylchroman-2-carboxamido)benzoate], the “% cells that survived, Mean” value worked out at 59%. Also, for the setting “10 nM”, the viability at 0.01 µM was determined as 4.42%. Moreover, where the note is “100 nM”, the viability at 0.1 µM came out at 95.7%. Also, the viability at 1 µM (1 μM) was found to be 92.7%. In addition, the viability at 10 µM (10 μM) is 94.8%. The viability at 100 µM (100 μM) is 37.6%. Further, for the setting “1 mM”, the viability at 1000 µM worked out at 28.9%.

`Cc1c(C)c2c(c(C)c1O)CCC(C)(CN1CCC[C@H]1CO)O2` (stereo partly drawn) [SUL - 135, 2-(((S)-2-(hydroxymethyl)pyrrolidin-1-yl)methyl)-2,5,7,8-tetramethylchroman-6-ol]: the “% cells that survived, Mean” value is reported as 77%. The “% cells that survived” value (10 nM) was 71.94%. In addition, the “% cells that survived” value (100 nM) is recorded as 83.90%. Further, the “% cells that survived” value (1 μM) turned out to be 93.82%. The “% cells that survived” value (10 μM) is given as 93.85%. For the same molecule, the “% cells that survived” value (100 μM) is 83.46%. Besides, for the setting “1 mM”, the “% cells that survived” value amounted to 33.06%.

For `Cc1c(C)c2c(c(C)c1O)CCC(C)(C(=O)N1CCN(CCOCCO)CC1)O2` (stereo not shown) [SUL - 122, (6-hydroxy-2,5,7,8-tetramethylchroman-2-yl)(4-(2-(2-hydroxyethoxy)ethyl)piperazin-1-yl)methanone], the “% cells that survived, Mean” value stood at 57%. Besides, the viability at 0.01 µM (10 nM) was 5.15%. For the same molecule, where the note is “100 nM”, the viability at 0.1 µM came out at 22.5%. The viability at 1 µM (1 μM) was 85.6%. Besides, the viability at 10 µM (10 μM) worked out at 85.2%. Further, the viability at 100 µM (100 μM) amounted to 88.5%. Moreover, the viability at 1000 µM (1 mM) came to 55.6%.

In the case of `Cc1c(C)c2c(c(C)c1O)CCC(C)(C(=O)N[C@H](CO)c1ccccc1)O2` (stereo partly drawn) [SUL - 98, 6-hydroxy-N-((S)-2-hydroxy-1-phenylethyl)-2,5,7,8-tetramethylchroman-2-carboxamide], the “% cells that survived, Mean” value was 75%. The viability at 0.1 µM (100 nM) amounted to 91%. Further, the viability at 1 µM (1 μM) turned out to be 97.8%. For the same molecule, the viability at 10 µM (10 μM) was determined as 97.5%. The viability at 100 µM (100 μM) amounted to 88.5%. In addition, where the note is “1 mM”, the viability at 1000 µM was 1.02%.

Turning to `Cc1c(C)c2c(c(C)c1O)CCC(C)(C(=O)NO)O2` (stereo not shown) [SUL - 90, N,6-dihydroxy-2,5,7,8-tetramethylchroman-2-carboxamide], the “% cells that survived, Mean” value is listed as 58%. The viability at 0.1 µM (100 nM) worked out at 8.67%. Further, the viability at 1 µM (1 μM) came out at 91.3%. Also, the viability at 10 µM (10 μM) is 90.2%. Besides, the viability at 100 µM (100 μM) came to 77.9%. Moreover, the viability at 1000 µM (1 mM) came out at 20.4%.

With `Cc1c(C)c2c(c(C)c1O)CC[C@](C)(C(=O)O)O2` [SUL - 85, (R)-6-hydroxy-2,5,7,8-tetramethylchroman-2-carboxylic acid], the “% cells that survived, Mean” value was 33%. Further, where the note is “100 nM”, the viability at 0.1 µM turned out to be 1.23%. Moreover, the viability at 1 µM (1 μM) was 0%. For the same molecule, the viability at 10 µM (10 μM) was 1.43%. Also, the viability at 100 µM (100 μM) worked out at 84.9%. In addition, the viability at 1000 µM (1 mM) was found to be 78.3%.

In the case of `Cc1c(C)c2c(c(C)c1O)CCC(C)(C(=O)NCCCN1CCCCC1)O2` (stereo not shown) [SUL - 102, 6-hydroxy-2,5,7,8-tetramethyl-N-(3-(piperidin-1-yl)propyl)chroman-2-carboxamide], the “% cells that survived, Mean” value came to 85%. Also, the viability at 0.01 µM (10 nM) is 73.2%. Further, the viability at 0.1 µM (100 nM) was 95.8%. Also, the viability at 1 µM (1 μM) was 93.7%. Also, the viability at 10 µM (10 μM) came to 82%. The viability at 100 µM (100 μM) amounted to 73.4%. Further, the viability at 1000 µM (1 mM) turned out to be 93.3%.

With `Cc1c(C)c2c(c(C)c1O)CCC(C)(CN[C@H](CO)c1ccccc1)O2` (stereo partly drawn) [SUL - 129, 2-((((S)-2-hydroxy-1-phenylethyl)amino)methyl)-2,5,7,8-tetramethylchroman-6-ol], the “% cells that survived, Mean” value is 46%. For the same molecule, where the note is “10 nM”, the viability at 0.01 µM came out at 0%. For the same molecule, the viability at 0.1 µM (100 nM) was 5.65%. In addition, the viability at 1 µM (1 μM) was 88.8%. In addition, the viability at 10 µM (10 μM) was 89.9%. Also, the viability at 100 µM (100 μM) is 91.5%. Further, where the note is “1 mM”, the viability at 1000 µM stood at 0%.

As to `Cc1c(C)c2c(c(C)c1O)CCC(C)(CN1CCCCC1)O2` (stereo not shown) [SUL - 130, 2,5,7,8-tetramethyl-2-(piperidin-1-ylmethyl)chroman-6-ol], the “% cells that survived, Mean” value came out at 46%. Also, the viability at 0.01 µM (10 nM) turned out to be 0%. For the same molecule, under “100 nM”, the viability at 0.1 µM came out at 12.7%. Besides, the viability at 1 µM (1 μM) was found to be 85.7%. Moreover, the viability at 10 µM (10 μM) stood at 89.6%. Besides, under “100 μM”, the viability at 100 µM turned out to be 86.5%. In addition, the viability at 1000 µM (1 mM) amounted to 1.49%.

Regarding `CCOC(=O)CN1CCN(C(=O)C2(C)CCc3c(C)c(O)c(C)c(C)c3O2)CC1` (stereo not shown) [SUL - 140, ethyl 2-(4-(6-hydroxy-2,5,7,8-tetramethylchroman-2-carbonyl)piperazin-1-yl)acetate], the “% cells that survived, Mean” value worked out at 52%. Moreover, the viability at 0.01 µM (10 nM) came out at 8.7%. Further, the viability at 0.1 µM (100 nM) came to 17.9%. The viability at 1 µM (1 μM) came to 95.7%. For the same molecule, the viability at 10 µM (10 μM) stood at 97%. Also, under “100 μM”, the viability at 100 µM was 94.6%. For the setting “1 mM”, the viability at 1000 µM is 0%.

In the case of `Cc1c(C)c2c(c(C)c1O)CCC(C)(C(=O)Nc1cccc([N+](=O)[O-])c1)O2` (stereo not shown) [SUL - 104, 6-hydroxy-2,5,7,8-tetramethyl-N-(3-nitrophenyl)chroman-2-carboxamide], the “% cells that survived, Mean” value was determined as 81%. In addition, the viability at 0.01 µM (10 nM) came to 99.3%. Further, the viability at 0.1 µM (100 nM) came to 99.5%. The viability at 1 µM (1 μM) amounted to 97.5%. For the same molecule, the viability at 10 µM (10 μM) is 98.9%. Under “100 μM”, the viability at 100 µM worked out at 40.9%. The viability at 1000 µM (1 mM) is 52.2%.
